Test results as given in the supplement of paper PMC10307832.

Tests used:
Assay in all cases: relative viability (nuclei count vs DMSO), 5 days (fraction); higher = more cells survive
Ponatinib + Dasatinib = compound: Cc1ccc(C(=O)Nc2ccc(CN3CCN(C)CC3)c(C(F)(F)F)c2)cc1C#Cc1cnc2cccnn12 [Ponatinib] + Cc1nc(Nc2ncc(C(=O)Nc3c(C)cccc3Cl)s2)cc(N2CCN(CCO)CC2)n1 [Dasatinib] (partner 0.075 µM)
Summary of the method: (§1)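 Medians of duplicate plates are given as relative viability. That measure is the nuclei count in treated wells divided by the count in vehicle wells. Counts were taken on 4× images of lung cancer cell lines in 1536-well plates, 5 days after pin-tool dosing the day after seeding with one drug alone or a fixed anchor-drug dose plus five library-drug doses (not always all listed) in √10 steps.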

Pazopanib + Tozasertib = compound: Cc1ccc(Nc2nccc(N(C)c3ccc4c(C)n(C)nc4c3)n2)cc1S(N)(=O)=O [Pazopanib] + Cc1cc(Nc2cc(N3CCN(C)CC3)nc(Sc3ccc(NC(=O)C4CC4)cc3)n2)n[nH]1 [Tozasertib] (partner 0.1 µM)
Summary of the method: as §1

Pazopanib + Pemetrexed = compound: Cc1ccc(Nc2nccc(N(C)c3ccc4c(C)n(C)nc4c3)n2)cc1S(N)(=O)=O [Pazopanib] + Nc1nc2[nH]cc(CCc3ccc(C(=O)N[C@@H](CCC(=O)O)C(=O)O)cc3)c2c(=O)[nH]1 [Pemetrexed] (partner 0.2 µM)
Summary of the method: as §1

Ponatinib + Navitoclax = compound: Cc1ccc(C(=O)Nc2ccc(CN3CCN(C)CC3)c(C(F)(F)F)c2)cc1C#Cc1cnc2cccnn12 [Ponatinib] + CC1(C)CCC(c2ccc(Cl)cc2)=C(CN2CCN(c3ccc(C(=O)NS(=O)(=O)c4ccc(N[C@H](CCN5CCOCC5)CSc5ccccc5)c(S(=O)(=O)C(F)(F)F)c4)cc3)CC2)C1 [Navitoclax] (partner 0.5 µM)
Summary of the method: as §1

Row | Cell Line | relative viability (Ponatinib + Dasatinib; first compound 0.002 µM) | relative viability (Ponatinib + Dasatinib; first compound 0.006325 µM) | relative viability (Ponatinib + Dasatinib; first compound 0.06325 µM) | relative viability (Ponatinib + Dasatinib; first compound 0.2 µM) | relative viability (Pazopanib + Tozasertib; first compound 0.01 µM) | relative viability (Pazopanib + Tozasertib; first compound 0.03162 µM) | relative viability (Pazopanib + Tozasertib; first compound 0.1 µM) | relative viability (Pazopanib + Tozasertib; first compound 0.3162 µM) | relative viability (Pazopanib + Tozasertib; first compound 1 µM) | relative viability (Pazopanib + Pemetrexed; first compound 0.01 µM) | relative viability (Pazopanib + Pemetrexed; first compound 0.03162 µM) | relative viability (Pazopanib + Pemetrexed; first compound 0.1 µM) | relative viability (Pazopanib + Pemetrexed; first compound 0.3162 µM) | relative viability (Pazopanib + Pemetrexed; first compound 1 µM) | relative viability (Ponatinib + Navitoclax; first compound 0.002 µM) | relative viability (Ponatinib + Navitoclax; first compound 0.006325 µM) | relative viability (Ponatinib + Navitoclax; first compound 0.06325 µM) | relative viability (Ponatinib + Navitoclax; first compound 0.2 µM)
1 | 201T | 0.61 | 0.593 | 0.593 | 0.461 | 0.961 | 1 | 0.961 | 0.908 | 0.926 | 0.369 | 0.331 | 0.318 | 0.333 | 0.323 | 1.2 | 1.21 | 1.22 | 1.23
2 | A549 | – | – | – | – | – | – | – | – | – | – | – | – | – | – | 1.17 | 1.11 | 1.37 | 1.16
3 | A-427 | 0.696 | 0.784 | 0.721 | 0.481 | 0.183 | 0.207 | 0.207 | 0.217 | 0.186 | 0.942 | 1.04 | 0.934 | 1.05 | 1.05 | 0.916 | 0.971 | 1.07 | 0.854
4 | ABC-1 | 0.465 | 0.614 | 0.539 | 0.629 | 0.182 | 0.174 | – | 0.151 | 0.19 | – | – | – | – | – | – | – | – | –
5 | BEN | 0.255 | 0.279 | 0.257 | 0.311 | 0.481 | 0.463 | 0.582 | 0.516 | 0.482 | 0.67 | 0.803 | 0.706 | 0.8 | 0.834 | 0.0656 | 0.0538 | 0.0585 | 0.0666
6 | CAL-12T | 0.48 | 0.37 | 0.365 | 0.219 | 0.247 | 0.327 | 0.312 | 0.297 | 0.294 | 1.13 | 1.3 | 1.37 | 1.08 | 1.26 | 1.07 | 1.16 | 1.43 | 1.24
7 | COR-L23 | 0.526 | 0.502 | 0.666 | 0.433 | 0.236 | 0.173 | 0.202 | 0.214 | 0.152 | 0.177 | 0.182 | 0.207 | 0.204 | 0.203 | 0.977 | 0.912 | 1 | 0.901
8 | COR-L 105 | 0.314 | 0.41 | 0.344 | 0.341 | 0.341 | 0.345 | 0.356 | 0.334 | 0.382 | 1.07 | 1.24 | 1.19 | 1.21 | 1.21 | 0.832 | 0.8 | 0.832 | 0.955
9 | Calu-6 | – | – | – | – | – | – | – | – | – | – | – | – | – | – | 0.828 | 0.682 | 0.941 | 0.717
10 | ChaGo-K-1 | 0.487 | 0.567 | 0.488 | 0.509 | 0.21 | 0.221 | 0.241 | 0.257 | 0.255 | 0.267 | 0.256 | 0.268 | 0.257 | 0.252 | 0.914 | 1.18 | 1.05 | 0.954
11 | EBC-1 | – | – | – | – | – | – | – | – | – | – | – | – | – | – | 0.504 | 0.534 | 0.358 | 0.304
12 | EKVX | 0.56 | 0.624 | 0.502 | 0.483 | 0.355 | 0.383 | 0.435 | 0.422 | 0.448 | 0.37 | 0.403 | 0.377 | 0.35 | 0.361 | 0.878 | 0.907 | 1.04 | 0.735
13 | EMC-BAC-2 | 0.335 | 0.319 | 0.323 | 0.305 | – | 0.302 | 0.302 | 0.226 | 0.278 | – | 0.456 | 0.384 | 0.434 | 0.425 | 1.06 | 1.07 | 1.19 | 1.11
14 | EPLC-272H | 0.359 | 0.33 | 0.376 | 0.279 | – | 0.352 | 0.167 | 0.21 | 0.241 | 0.313 | 0.461 | 0.318 | 0.332 | 0.353 | 0.989 | 1.23 | 1.18 | 1.05
15 | H3255 | 0.326 | 0.317 | 0.387 | 0.367 | 0.489 | 0.629 | 0.986 | 0.656 | 0.734 | 0.549 | 0.585 | 0.581 | 0.569 | 0.583 | 0.477 | 0.501 | 0.725 | 0.479
16 | HARA | 0.281 | 0.215 | 0.233 | 0.173 | 0.09 | 0.119 | 0.603 | 0.0772 | 0.0838 | 0.245 | 0.244 | 0.242 | 0.207 | 0.237 | 1.13 | 1.14 | 1.12 | 1.16
17 | HCC-15 | 0.585 | 0.61 | 0.828 | 0.61 | 0.435 | 0.502 | 0.411 | 0.394 | 0.37 | 0.215 | 0.226 | 0.223 | 0.209 | 0.231 | 0.671 | 0.738 | 0.83 | 0.661
18 | HCC-44 | – | – | – | – | 0.872 | 0.913 | 0.926 | 0.843 | 0.78 | 0.697 | 0.637 | 0.605 | 0.62 | 0.616 | 0.941 | 0.98 | 1.16 | 0.93
19 | HCC-78 | 0.33 | 0.35 | 0.296 | 0.382 | 0.334 | 0.429 | 0.472 | 0.517 | 0.415 | – | 0.934 | 0.899 | 0.839 | 0.927 | 0.578 | 0.725 | 0.981 | 0.629
20 | HCC-366 | 0.563 | 0.621 | 0.644 | 0.54 | 0.124 | 0.132 | 0.0845 | 0.163 | 0.068 | 0.298 | 0.141 | 0.16 | 0.159 | 0.131 | 1.03 | 1.02 | 1.14 | 0.966
